{"source": "patent US12389906B2", "about": "“Aqueous herbicidal concentrates” (Monsanto Technology LLC, priority 2014, dated 2025)", "key": {"IPOLA": {"tested_on": "IPOLA", "assay": "Field trial 1 weed control, IPOLA", "assay_type": "in vivo", "conditions": "0.25 lb/acre, pre-emergence to weeds, 4 WAT", "excerpt": "(§1) Four replications were completed per treatment."}, "AMATG": {"tested_on": "AMATG", "assay": "Field trial 1 weed control, AMATG", "assay_type": "in vivo, Glyphosate-resistant (GR) AMATA", "conditions": "0.25 lb/acre, pre-emergence to weeds, 4 WAT", "excerpt": "as §1"}, "ECHCF": {"tested_on": "ECHCF", "assay": "Field trial 1 weed control, ECHCF", "assay_type": "in vivo", "conditions": "0.25 lb/acre, pre-emergence to weeds, 4 WAT", "excerpt": "as §1"}, "MOLVE (carpetweed)": {"tested_on": "MOLVE (carpetweed)", "assay": "Field trial 1 weed control, MOLVE", "assay_type": "in vivo", "conditions": "0.25 lb/acre, pre-emergence to weeds, 4 WAT", "excerpt": "as §1"}, "ABUTH (velvetleaf)": {"tested_on": "ABUTH (velvetleaf)", "assay": "Field trial 1 weed control, ABUTH", "assay_type": "in vivo", "conditions": "0.25 lb/acre, pre-emergence to weeds, 4 WAT", "excerpt": "as §1"}, "DIGSA": {"tested_on": "DIGSA", "assay": "Field trial 1 weed control, DIGSA", "assay_type": "in vivo", "conditions": "0.25 lb/acre, pre-emergence to weeds, 4 WAT", "excerpt": "as §1"}, "AMATA": {"tested_on": "AMATA", "assay": "Field trial 1 weed control, AMATA", "assay_type": "in vivo, waterhemp", "conditions": "0.25 lb/acre, pre-emergence to weeds, 4 WAT", "excerpt": "as §1"}, "broadleaf weed species [1]": {"tested_on": "broadleaf weed species", "assay": "Field Trial 1 results summary, broadleaf control", "assay_type": "in vivo", "conditions": "0.25 lb a.i./acre (0.28 kg/hectare), 4 WAT", "excerpt": "as §1"}, "AMAPG": {"tested_on": "AMAPG", "assay": "Field trial 1 weed control, AMAPG", "assay_type": "in vivo, Glyphosate-resistant (GR) AMAPA", "conditions": "0.25 lb/acre, pre-emergence to weeds, 4 WAT", "excerpt": "as §1"}, "CASOB (sicklepod)": {"tested_on": "CASOB (sicklepod)", "assay": "Field trial 1 weed control, CASOB", "assay_type": "in vivo", "conditions": "0.25 lb/acre, pre-emergence to weeds, 4 WAT", "excerpt": "as §1"}, "DIGSS (Digitaria sps.)": {"tested_on": "DIGSS (Digitaria sps.)", "assay": "Field trial 1 weed control, DIGSS", "assay_type": "in vivo", "conditions": "0.25 lb/acre, pre-emergence to weeds, 4 WAT", "excerpt": "as §1"}, "PESGL (pearl millet)": {"tested_on": "PESGL (pearl millet)", "assay": "Field trial 1 weed control, PESGL", "assay_type": "in vivo", "conditions": "0.25 lb/acre, pre-emergence to weeds, 4 WAT", "excerpt": "as §1"}, "BRASS (Signalgrass sps.)": {"tested_on": "BRASS (Signalgrass sps.)", "assay": "Field trial 1 weed control, BRASS", "assay_type": "in vivo", "conditions": "0.25 lb/acre, pre-emergence to weeds, 4 WAT", "excerpt": "as §1"}, "narrowleaf weed species [2]": {"tested_on": "narrowleaf weed species", "assay": "Field Trial 2 results summary, narrowleaf control", "assay_type": "in vivo", "conditions": "0.25 lb a.i./acre (0.28 kg/hectare), 4 WAT", "excerpt": "as §1"}, "SORSS (Sorghum sps.)": {"tested_on": "SORSS (Sorghum sps.)", "assay": "Field trial 1 weed control, SORSS", "assay_type": "in vivo", "conditions": "0.25 lb/acre, pre-emergence to weeds, 4 WAT", "excerpt": "as §1"}, "IPOHE": {"tested_on": "IPOHE", "assay": "Field trial 1 weed control, IPOHE", "assay_type": "in vivo", "conditions": "0.25 lb/acre, pre-emergence to weeds, 4 WAT", "excerpt": "as §1"}, "SETFA (giant foxtail)": {"tested_on": "SETFA (giant foxtail)", "assay": "Field trial 1 weed control, SETFA", "assay_type": "in vivo", "conditions": "0.25 lb/acre, pre-emergence to weeds, 4 WAT", "excerpt": "as §1"}, "narrowleaf weed species [3]": {"tested_on": "narrowleaf weed species", "assay": "Field Trial 1 results summary, narrowleaf control", "assay_type": "in vivo", "conditions": "0.25 lb a.i./acre (0.28 kg/hectare), 4 WAT", "excerpt": "as §1"}, "SEBEX": {"tested_on": "SEBEX", "assay": "Field trial 1 weed control, SEBEX", "conditions": "0.25 lb/acre, pre-emergence to weeds, 4 WAT", "protocol": "A series of field trials were conducted at a variety of locations. The soil texture at these sites ranged from silty loam, silty clay loam, to sandy silt loam and sandy loam. The objective of the experiment was to evaluate the weed efficacy and length of residual efficacy of the each standalone herbicide compared to the herbicide combinations. The experiments were conducted in a randomized complete block design. Four replications were completed per treatment. Time of application was pre-emergence to weeds, and treatments were applied using a back-pack or tractor mounted sprayer.\nWeed control was determined as a percentage as compared to untreated plants following a standard procedure where visual assessment of plant mortality and growth reduction is made by one specially trained to make such assessments. Across the field trials, the results for 16 broadleaf and 7 narrowleaf weed species were recorded. […] Mean percent control and standard error are calculated by the least squares method."}, "SIDSP (prickly sida)": {"tested_on": "SIDSP (prickly sida)", "assay": "Field trial 1 weed control, SIDSP", "assay_type": "in vivo", "conditions": "0.25 lb/acre, pre-emergence to weeds, 4 WAT", "excerpt": "as §1"}, "[4]": {"tested_on": "ACCOS (hophornbeam copperleaf)", "assay": "Field trial 1 weed control, ACCOS", "assay_type": "in vivo", "conditions": "0.25 lb/acre, pre-emergence to weeds, 4 WAT", "excerpt": "as §1"}, "broadleaf weed species [5]": {"tested_on": "broadleaf weed species", "assay": "Field Trial 2 results summary, broadleaf control", "assay_type": "in vivo", "conditions": "0.25 lb a.i./acre (0.28 kg/hectare), 4 WAT", "excerpt": "as §1"}, "SORHA (johnsongrass)": {"tested_on": "SORHA (johnsongrass)", "assay": "Field trial 1 weed control, SORHA", "assay_type": "in vivo", "conditions": "0.25 lb/acre, pre-emergence to weeds, 4 WAT", "excerpt": "as §1"}, "AMBEL (common ragweed)": {"tested_on": "AMBEL (common ragweed)", "assay": "Field trial 1 weed control, AMBEL", "assay_type": "in vivo", "conditions": "0.25 lb/acre, pre-emergence to weeds, 4 WAT", "excerpt": "as §1"}, "HIBTR (venice mallow)": {"tested_on": "HIBTR (venice mallow)", "assay": "Field trial 1 weed control, HIBTR", "assay_type": "in vivo", "conditions": "0.25 lb/acre, pre-emergence to weeds, 4 WAT", "excerpt": "as §1"}, "AMAPA": {"tested_on": "AMAPA", "assay": "Field trial 1 weed control, AMAPA", "assay_type": "in vivo, palmer amaranth", "conditions": "0.25 lb/acre, pre-emergence to weeds, 4 WAT", "excerpt": "as §1"}, "ECHCG (Echinochola sps.)": {"tested_on": "ECHCG (Echinochola sps.)", "assay": "Field trial 1 weed control, ECHCG", "assay_type": "in vivo", "conditions": "0.25 lb/acre, pre-emergence to weeds, 4 WAT", "excerpt": "as §1"}, "[6]": {"tested_on": "IPOSS (Morningglory sps.)", "assay": "Field trial 1 weed control, IPOSS", "assay_type": "in vivo", "conditions": "0.25 lb/acre, pre-emergence to weeds, 4 WAT", "excerpt": "as §1"}, "EPHSS (Euphorbia sps.)": {"tested_on": "EPHSS (Euphorbia sps.)", "assay": "Field trial 1 weed control, EPHSS", "assay_type": "in vivo", "conditions": "0.25 lb/acre, pre-emergence to weeds, 4 WAT", "excerpt": "as §1"}, "POROL (common purslane)": {"tested_on": "POROL (common purslane)", "assay": "Field trial 1 weed control, POROL", "assay_type": "in vivo", "conditions": "0.25 lb/acre, pre-emergence to weeds, 4 WAT", "excerpt": "as §1"}, "[7]": {"tested_on": "CHEAL (common lambsquarters)", "assay": "Field trial 1 weed control, CHEAL", "assay_type": "in vivo", "conditions": "0.25 lb/acre, pre-emergence to weeds, 4 WAT", "excerpt": "as §1"}}, "data": [{"smiles": "CS(=O)(=O)NC(=O)c1cc(Oc2ccc(C(F)(F)F)cc2Cl)ccc1[N+](=O)[O-]", "note": "[Fomesafen, fomesafen]", "values": [{"measurement": "% Control (mean)", "setting": "IPOLA", "value": 27.5, "unit": "%"}, {"measurement": "% Control (mean)", "setting": "AMATG", "value": 57.5, "unit": "%"}, {"measurement": "% Control (mean)", "setting": "ECHCF", "value": 71.9, "unit": "%"}, {"measurement": "% Control (mean)", "setting": "MOLVE (carpetweed)", "value": 90.6, "unit": "%"}, {"measurement": "% Control (mean)", "setting": "ABUTH (velvetleaf)", "value": 63.7, "unit": "%"}, {"measurement": "% Control (mean)", "setting": "DIGSA", "value": 65.3, "unit": "%"}, {"measurement": "% Control (mean)", "setting": "AMATA", "value": 85.8, "unit": "%"}, {"measurement": "Broadleaf Control", "setting": "broadleaf weed species [1]", "value": 70, "unit": "%"}, {"measurement": "% Control (mean)", "setting": "AMAPG", "value": 87.8, "unit": "%"}, {"measurement": "% Control (mean)", "setting": "CASOB (sicklepod)", "value": 46.2, "unit": "%"}, {"measurement": "% Control (mean)", "setting": "DIGSS (Digitaria sps.)", "value": 99.0, "unit": "%"}, {"measurement": "% Control (mean)", "setting": "PESGL (pearl millet)", "value": 100.0, "unit": "%"}, {"measurement": "% Control (mean)", "setting": "BRASS (Signalgrass sps.)", "value": 99.5, "unit": "%"}, {"measurement": "Narrowleaf Control", "setting": "narrowleaf weed species [2]", "value": 66.3, "unit": "%"}, {"measurement": "% Control (mean)", "setting": "SORSS (Sorghum sps.)", "value": 99.8, "unit": "%"}, {"measurement": "% Control (mean)", "setting": "IPOHE", "value": 52.5, "unit": "%"}, {"measurement": "% Control (mean)", "setting": "SETFA (giant foxtail)", "value": 58.8, "unit": "%"}, {"measurement": "Narrowleaf Control", "setting": "narrowleaf weed species [3]", "value": 79, "unit": "%"}, {"measurement": "% Control (mean)", "setting": "SEBEX", "value": 33.8, "unit": "%"}, {"measurement": "% Control (mean)", "setting": "SIDSP (prickly sida)", "value": 98.3, "unit": "%"}, {"measurement": "% Control (mean)", "setting": "[4]", "value": 93.8, "unit": "%"}, {"measurement": "Broadleaf Control", "setting": "broadleaf weed species [5]", "value": 63.6, "unit": "%"}, {"measurement": "% Control (mean)", "setting": "SORHA (johnsongrass)", "value": 86.8, "unit": "%"}, {"measurement": "% Control (mean)", "setting": "AMBEL (common ragweed)", "value": 75.8, "unit": "%"}, {"measurement": "% Control (mean)", "setting": "HIBTR (venice mallow)", "value": 75.0, "unit": "%"}, {"measurement": "% Control (mean)", "setting": "AMAPA", "value": 92.5, "unit": "%"}, {"measurement": "% Control (mean)", "setting": "ECHCG (Echinochola sps.)", "value": 66.8, "unit": "%"}, {"measurement": "% Control (mean)", "setting": "[6]", "value": 63.1, "unit": "%"}, {"measurement": "% Control (mean)", "setting": "EPHSS (Euphorbia sps.)", "value": 100.0, "unit": "%"}, {"measurement": "% Control (mean)", "setting": "POROL (common purslane)", "value": 66.3, "unit": "%"}, {"measurement": "% Control (mean)", "setting": "[7]", "value": 78.3, "unit": "%"}]}]}
